From US5075289A, “9-R-azacyclic erythromycin antibiotics” (priority 1988, dated 1991)
Values after ≈ are worked out from the molar mass of the structure shown. Like-named read-outs stand apart in the source and are kept apart here.

Experiments:
[1] = test system: Streptococcus pneumoniae (6303); experiment: In-vivo mouse protection assay (acute mouse protection test); design: species or system Swiss albino mice; conditions: 168 h, S. pneumoniae 6303, dosed 1 and 5 hours post infection, 7 days, read-out: ED50
Method: (§1) The acute mouse protection test is conducted on ten mice with each of three levels of drug. Mouse mortality is used to calculate an ED50 value, i.e., the dose of drug required to protect 50% of the test animals against death due to the inoculum challenge.
(§2) The acute mouse protection test is conducted on female, Swiss albino mice, 18-20 grams in weight. […] To check the potency of the inoculum, a titration of the indicated test organism is carried out in control animals. The treatment group of animals is dosed with the test compound at 1 and 5 hours post infection and observed for 7 days. The ED50 values are calculated using the mortality data collected.

[2] = test system: Streptococcus pyogenes C-203; experiment: as above; design: species or system Swiss albino mice
Method: as §1, §2

[3] = test system: Staphylococcus aureus (NCTC 10649); experiment: as above; design: species or system Swiss albino mice; conditions: S. aureus NCTC 10649, dosed 1 and 5 hours post infection, 7 days, read-out: ED50
Method: as §1, §2

[4] = test system: Staphylococcus aureus CMX 503A; experiment: In vitro antibacterial activity, agar dilution MIC; assay type: cell-based; conditions: CMX503A, S. aureus CMX 503A, Brain Heart Infusion agar, 20-24 hours, read-out: MIC
Method in brief: (§3)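 In agar dilution on Brain Heart Infusion agar, twelve successive compound dilutions were inoculated at 1:100 (1:10 for slow growers such as Streptococcus) by replicator and incubated 20–24 h at 35–37 °C. MIC is the lowest concentration giving no growth, slight haze or sparse colonies; erythromycin A was the class control.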

[5] = test system: Haemophilus influenzae 1435; experiment: In vitro antibacterial activity, agar dilution MIC; assay type: cell-based; conditions: H. influenzae 1435
Method in brief: as §3

[6] = test system: Haemophilus influenzae SPK AMP R; experiment: In vitro antibacterial activity, agar dilution MIC; assay type: cell-based; conditions: H. influenzae SPK AMP R
Method in brief: as §3

Escherichia coli Juhl = experiment: In vitro antibacterial activity, agar dilution MIC; assay type: cell-based
Method in brief: as §3

Escherichia coli DC-2 = experiment: In vitro antibacterial activity, agar dilution MIC; assay type: cell-based; conditions: DC2
Method in brief: as §3

[7] = test system: Enterococcus faecium ATCC 8043; experiment: In vitro antibacterial activity, agar dilution MIC; assay type: cell-based
Method in brief: as §3

[8] = test system: Streptococcus pyogenes 930 CONST; experiment: In vitro antibacterial activity, agar dilution MIC; assay type: cell-based; conditions: 930CONST
Method in brief: as §3

[9] = test system: Streptococcus pyogenes 2548 INDUC; experiment: In vitro antibacterial activity, agar dilution MIC; assay type: cell-based; conditions: S. pyogenes 2548 INDUC, Brain Heart Infusion agar, 20-24 hours, read-out: MIC
Method in brief: as §3

[10] = test system: Staphylococcus aureus CMX 686B; experiment: In vitro antibacterial activity, agar dilution MIC; assay type: cell-based; conditions: CMX686B, S. aureus CMX 686B, Brain Heart Infusion agar, 20-24 hours, read-out: MIC
Method in brief: as §3

[11] = test system: Haemophilus influenzae 588A; experiment: In vitro antibacterial activity, agar dilution MIC; assay type: cell-based; conditions: H. influenzae 588A
Method in brief: as §3

[12] = test system: Haemophilus influenzae 1177; experiment: In vitro antibacterial activity, agar dilution MIC; assay type: cell-based; conditions: H. influenzae 1177
Method in brief: as §3

[13] = test system: Staphylococcus aureus ATCC 6538P; experiment: In vitro antibacterial activity, agar dilution MIC; assay type: cell-based; conditions: ATCC6538P
Method in brief: as §3

[14] = test system: Haemophilus influenzae 667A; experiment: In vitro antibacterial activity, agar dilution MIC; assay type: cell-based; conditions: H. influenzae 667A
Method in brief: as §3

[15] = test system: Haemophilus influenzae ATCC 19418; experiment: In vitro antibacterial activity, agar dilution MIC; assay type: cell-based; conditions: ATCC19418, H. influenzae ATCC 19418
Method in brief: as §3

Escherichia coli SS = experiment: In vitro antibacterial activity, agar dilution MIC; assay type: cell-based; conditions: read-out: MIC
Method in brief: as §3

[16] = test system: Micrococcus luteus ATCC 9341; experiment: In vitro antibacterial activity, agar dilution MIC; assay type: cell-based; conditions: ATCC9341, M. luteus ATCC 9341, Brain Heart Infusion agar, 20-24 hours, read-out: MIC
Method in brief: as §3

[17] = test system: Haemophilus influenzae SOL AMP R; experiment: In vitro antibacterial activity, agar dilution MIC; assay type: cell-based; conditions: H. influenzae SOL AMP R
Method in brief: as §3

Staphylococcus aureus 45 = experiment: In vitro antibacterial activity, agar dilution MIC; assay type: cell-based
Method in brief: as §3

[18] = test system: Haemophilus influenzae 504; experiment: In vitro antibacterial activity, agar dilution MIC; assay type: cell-based; conditions: H. influenzae 504
Method in brief: as §3

[19] = test system: Haemophilus influenzae 519A; experiment: In vitro antibacterial activity, agar dilution MIC; assay type: cell-based; conditions: H. influenzae 519A
Method in brief: as §3

[20] = test system: Haemophilus influenzae 751; experiment: In vitro antibacterial activity, agar dilution MIC; assay type: cell-based; conditions: H. influenzae 751
Method in brief: as §3

[21] = test system: Haemophilus influenzae ATCC 10211; experiment: In vitro antibacterial activity, agar dilution MIC; assay type: cell-based; conditions: ATCC10211, H. influenzae ATCC 10211
Method in brief: as §3

[22] = test system: Streptococcus agalactiae CMX 508; experiment: In vitro antibacterial activity, agar dilution MIC; assay type: cell-based; conditions: CMX508, S. agalactiae CMX 508, Brain Heart Infusion agar, 20-24 hours, read-out: MIC
Method in brief: as §3

[23] = test system: Streptococcus bovis A5169; experiment: In vitro antibacterial activity, agar dilution MIC; assay type: cell-based
Method in brief: as §3

[24] = test system: Haemophilus influenzae 503B; experiment: In vitro antibacterial activity, agar dilution MIC; assay type: cell-based; conditions: H. influenzae 503B
Method in brief: as §3

[25] = test system: Staphylococcus epidermidis 3519; experiment: In vitro antibacterial activity, agar dilution MIC; assay type: cell-based; conditions: S. epidermidis 3519, Brain Heart Infusion agar, 20-24 hours, read-out: MIC
Method in brief: as §3

Escherichia coli H560 = experiment: In vitro antibacterial activity, agar dilution MIC; assay type: cell-based; conditions: H560
Method in brief: as §3

[26] = C203, 168 h, Oral, S. pyogenes C-203, dosed 1 and 5 hours post infection, 7 days, read-out: ED50
[27] = NCTC10649, sc, 168 h, Subcutaneous

Molecule `CC[C@H]1OC(=O)[C@H](C)[C@@H](O[C@H]2C[C@@](C)(OC)[C@@H](O)[C@H](C)O2)[C@H](C)[C@@H](O[C@@H]2O[C@H](C)C[C@H](N(C)C)[C@H]2O)[C@](C)(O)C[C@@H](C)[C@@H](N2CCCCC2)[C@H](C)[C@@H](O)[C@]1(C)O` [Example 5] has an ED50 ([1]; Oral) of 4.5 mg/kg, an ED50 ([1]; sc, Subcutaneous) of 0.4 mg/kg and an ED50 [2, 26] of under 7.5 mg/kg. For the same molecule, the ED50 ([2]; C203, sc, 168 h, Subcutaneous, S. pyogenes C-203, dosed 1 and 5 hours post infection, 7 days, read-out: ED50) was under 0.6 mg/kg, the ED50 ([3]; NCTC10649, 168 h, Oral) was 41.9 mg/kg and the ED50 [3, 27] was 7.5 mg/kg. The MIC [4] was 0.39 µg/mL (≈ 0.486 µM), the MIC [5] was 0.5 µg/mL (≈ 0.623 µM) and the MIC [6] was 1 µg/mL (≈ 1.25 µM). The MIC (Escherichia coli Juhl) was 50 µg/mL (≈ 62.3 µM), the MIC (Escherichia coli DC-2) was 50 µg/mL (≈ 62.3 µM) and the MIC ([7]; ATCC8043, E. faecium ATCC 8043, Brain Heart Infusion agar, 20-24 hours, read-out: MIC) was 0.1 µg/mL (≈ 0.125 µM). The MIC [8] was over 100 µg/mL, the MIC [9] was 6.2 µg/mL (≈ 7.72 µM) and the MIC [10] was 0.39 µg/mL (≈ 0.486 µM). It also gave an MIC [11] of 1 µg/mL (≈ 1.25 µM), an MIC [12] of 0.25 µg/mL (≈ 0.311 µM) and an MIC ([13]; S. aureus ATCC 6538P, Brain Heart Infusion agar, 35-37° C., 20-24 hours, read-out: MIC) of 0.39 µg/mL (≈ 0.486 µM). For the same molecule, the MIC [14] was 1 µg/mL (≈ 1.25 µM), the MIC [15] was 2 µg/mL (≈ 2.49 µM) and the MIC (Escherichia coli SS; E. coli SS, Brain Heart Infusion agar, 20-24 hours) was 0.39 µg/mL (≈ 0.486 µM). For the same molecule, the MIC [16] was 0.1 µg/mL (≈ 0.125 µM), the MIC [17] was 1 µg/mL (≈ 1.25 µM) and the MIC (Staphylococcus aureus 45; S. aureus 45, Brain Heart Infusion agar, 20-24 hours, read-out: MIC) was 0.78 µg/mL (≈ 0.971 µM). It also gave an MIC [18] of 1 µg/mL (≈ 1.25 µM), an MIC [19] of 0.5 µg/mL (≈ 0.623 µM) and an MIC [20] of 4 µg/mL (≈ 4.98 µM). It also gave an MIC [21] of 1 µg/mL (≈ 1.25 µM), an MIC [22] of 0.05 µg/mL (≈ 0.0623 µM) and an MIC ([23]; S. bovis A5169, Brain Heart Infusion agar, 20-24 hours, read-out: MIC) of 0.1 µg/mL (≈ 0.125 µM). For the same molecule, the MIC [24] was 0.5 µg/mL (≈ 0.623 µM), the MIC [25] was 0.39 µg/mL (≈ 0.486 µM) and the MIC (Escherichia coli H560) was 25 µg/mL (≈ 31.1 µM).

Work on `CC[C@H]1OC(=O)[C@H](C)[C@@H](O[C@H]2C[C@@](C)(OC)[C@@H](O)[C@H](C)O2)[C@H](C)[C@@H](O[C@@H]2O[C@H](C)C[C@H](N(C)C)[C@H]2O)[C@](C)(O)C[C@@H](C)[C@@H](N2CCOCC2)[C@H](C)[C@@H](O)[C@]1(C)O` [Example 19] yielded an ED50 ([1]; Oral) of 9.7 mg/kg, an ED50 ([1]; sc, Subcutaneous) of 1.1 mg/kg and an ED50 [2, 26] of 9.5 mg/kg. For the same molecule, the ED50 ([2]; C203, sc, 168 h) was 2.1 mg/kg, the ED50 ([3]; NCTC10649, 168 h, Oral) was 44.8 mg/kg and the ED50 [3, 27] was 15.5 mg/kg. The MIC [4] was 0.39 µg/mL (≈ 0.484 µM), the MIC [5] was 1 µg/mL (≈ 1.24 µM) and the MIC [6] was 4 µg/mL (≈ 4.97 µM). For the same molecule, the MIC (Escherichia coli Juhl) was 50 µg/mL (≈ 62.1 µM), the MIC (Escherichia coli DC-2) was 50 µg/mL (≈ 62.1 µM) and the MIC ([7]; ATCC8043) was 0.1 µg/mL (≈ 0.124 µM). It also gave an MIC [8] of over 100 µg/mL, an MIC [9] of 6.2 µg/mL (≈ 7.7 µM) and an MIC [10] of 0.39 µg/mL (≈ 0.484 µM). For the same molecule, the MIC [11] was 2 µg/mL (≈ 2.48 µM), the MIC [12] was 0.25 µg/mL (≈ 0.311 µM) and the MIC [13] was 0.39 µg/mL (≈ 0.484 µM). The MIC [14] was 4 µg/mL (≈ 4.97 µM), the MIC [15] was 4 µg/mL (≈ 4.97 µM) and the MIC (Escherichia coli SS) was 0.2 µg/mL (≈ 0.248 µM). For the same molecule, the MIC [16] was 0.05 µg/mL (≈ 0.0621 µM), the MIC [17] was 2 µg/mL (≈ 2.48 µM) and the MIC (Staphylococcus aureus 45; 45) was 0.39 µg/mL (≈ 0.484 µM). It also gave an MIC [18] of 4 µg/mL (≈ 4.97 µM), an MIC [19] of 2 µg/mL (≈ 2.48 µM) and an MIC [20] of 8 µg/mL (≈ 9.94 µM). It also gave an MIC [21] of 2 µg/mL (≈ 2.48 µM), an MIC [22] of 0.05 µg/mL (≈ 0.0621 µM) and an MIC [23] of 0.1 µg/mL (≈ 0.124 µM). For the same molecule, the MIC [24] was 1 µg/mL (≈ 1.24 µM), the MIC [25] was 0.39 µg/mL (≈ 0.484 µM) and the MIC (Escherichia coli H560) was 6.2 µg/mL (≈ 7.7 µM).
